The values below are quoted from earlier work in patent publication US20230201309A1, “COMPOSITIONS FOR THE TREATMENT OF A RESPIRATORY CONDITION” (VECTURA LIMITED, priority 2020, published 2023).

This data set relates to COVID-19.

On to `CCN(CCO)CCCC(C)Nc1ccnc2cc(Cl)ccc12` (centres unmarked) [hydroxychloroquine sulphate], for which the Hospital mortality (hospitalised COVID-19 patients, hydroxychloroquine sulphate monotherapy plus supportive care, total dose 2400 mg, 804/4,542 patients) is on record as 17.7%. Besides, the “mortality, adjusted hazard ratio (aHR) vs no-hydroxychloroquine sulphate group” value (multivariate analysis, 95% CI 0.617-0.758) is on record as 0.684.
